The subject of one data set is MCF7. The experiment in a line: Cytotoxicity against human MCF7 cells expressing estrogen and progesterone receptor after 72 hrs by MTT assay. In kind it is functional, cell-based.
Data set [1] in a line: Cytotoxicity against human MCF10A cells after 72 hrs by MTT assay. The data set is classed as cell-based. The settings on record: mcf-10a. Background: Tetrazolium dyes change colour on reduction, which living cells bring about.
For data set [2], the target named is Transcription factor p65 (Homo sapiens) (UniProt Q04206). The experiment in a line: Reduction of NFkappaB p65 expression in estrogen receptor-deficient human MDA-MB-231 cells at 5 uM after 72 hrs by Western blot analysis. The data set is classed as cell-based. Background: In western blotting, separated proteins are transferred to a membrane and probed.
Another data set has as its system MDA-MB-231. The experiment in a line: Cytotoxicity against estrogen receptor-deficient human MDA-MB-231 cells after 72 hrs by MTT assay. In kind it is functional, cell-based. As to conditions: MDA-MB-231, 72 h.

Active and inactive are the calls of the source. The calls are words filed in the database; no cut-off is given here.

Sequence of Transcription factor p65 (Homo sapiens) (Q04206 whole entry): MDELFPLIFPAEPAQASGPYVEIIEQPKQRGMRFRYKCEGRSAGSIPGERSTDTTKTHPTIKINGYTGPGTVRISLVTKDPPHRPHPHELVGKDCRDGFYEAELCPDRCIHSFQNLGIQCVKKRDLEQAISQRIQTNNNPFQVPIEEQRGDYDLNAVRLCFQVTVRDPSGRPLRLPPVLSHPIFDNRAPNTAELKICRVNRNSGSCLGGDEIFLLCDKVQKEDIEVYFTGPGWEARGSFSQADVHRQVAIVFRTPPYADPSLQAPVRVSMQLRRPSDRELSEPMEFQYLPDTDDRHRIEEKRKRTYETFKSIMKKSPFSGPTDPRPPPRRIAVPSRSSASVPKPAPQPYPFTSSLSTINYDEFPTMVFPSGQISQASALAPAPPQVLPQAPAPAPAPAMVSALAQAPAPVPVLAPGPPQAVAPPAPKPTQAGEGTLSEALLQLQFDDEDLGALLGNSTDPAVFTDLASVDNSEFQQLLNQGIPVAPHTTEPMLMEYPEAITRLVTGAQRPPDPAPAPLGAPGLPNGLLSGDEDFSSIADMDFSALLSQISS

As for `CC1=CC(=O)c2c(O)cccc2C1=O`, in the data set with MCF7, the result was Active.

As to `CC(=O)N/N=C1\C=C(C)C(=O)c2cccc(O)c21`, the result in the data set on MCF7 was Active. The Activity result in data set [1] is listed as “Non-toxic”.

In general, IC50 refers to the point on the concentration scale where inhibition reaches its midpoint. Higher therefore signals a need for much substance. As to `CC1=C/C(=N\NC(=O)c2cc3ccccc3cc2O)c2c(O)cccc2C1=O`, the result (in the data set with MCF7; in data set [2]) was Active. In the data set on MDA-MB-231, the IC50 came out at 3200 nM. For the same compound, the Activity result in data set [1] is “Non-toxic”.

`CC1=C/C(=N\NC(N)=S)c2c(O)cccc2C1=O`: in the data set on MCF7, the outcome was Active. In addition, in data set [1], the Activity result is listed as “Non-toxic”.

Turning to `CC1=C/C(=N\NC(=O)Cc2c[nH]c3ccccc23)c2c(O)cccc2C1=O`, the outcome (with MCF7; in data set [2]) was Active. The compound also yielded an IC50 in the data set on MDA-MB-231 of 1500 nM. The Activity result in data set [1] is on record as “Non-toxic”.
